{"source": "ChEMBL document CHEMBL1201862", "about": "“PubChem BioAssay data set” (2004)", "key": {"[1]": {"biological_target": "Photoreceptor-specific nuclear receptor (Homo sapiens, UniProt Q9Y5X4)", "sequence (Q9Y5X4 whole entry)": "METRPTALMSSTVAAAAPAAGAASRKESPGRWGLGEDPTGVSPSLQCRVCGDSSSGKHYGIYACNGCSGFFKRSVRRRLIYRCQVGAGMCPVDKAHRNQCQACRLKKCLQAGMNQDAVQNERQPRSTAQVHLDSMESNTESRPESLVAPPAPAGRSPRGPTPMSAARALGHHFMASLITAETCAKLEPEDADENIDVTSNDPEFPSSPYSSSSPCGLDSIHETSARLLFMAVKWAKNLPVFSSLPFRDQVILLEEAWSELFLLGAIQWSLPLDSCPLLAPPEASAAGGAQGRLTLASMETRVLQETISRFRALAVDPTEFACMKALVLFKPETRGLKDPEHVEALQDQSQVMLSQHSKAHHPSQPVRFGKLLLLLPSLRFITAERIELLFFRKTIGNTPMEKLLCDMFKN", "assay": "NR2E3 inverse agonists, dose response, biochemical, TR-FRET (AID 463256)", "format": "functional"}, "[2]": {"biological_target": "Peroxisome proliferator-activated receptor gamma/Nuclear receptor corepressor 2 (Homo sapiens, UniProt P37231+Q9Y618)", "sequence (P37231 whole entry)": "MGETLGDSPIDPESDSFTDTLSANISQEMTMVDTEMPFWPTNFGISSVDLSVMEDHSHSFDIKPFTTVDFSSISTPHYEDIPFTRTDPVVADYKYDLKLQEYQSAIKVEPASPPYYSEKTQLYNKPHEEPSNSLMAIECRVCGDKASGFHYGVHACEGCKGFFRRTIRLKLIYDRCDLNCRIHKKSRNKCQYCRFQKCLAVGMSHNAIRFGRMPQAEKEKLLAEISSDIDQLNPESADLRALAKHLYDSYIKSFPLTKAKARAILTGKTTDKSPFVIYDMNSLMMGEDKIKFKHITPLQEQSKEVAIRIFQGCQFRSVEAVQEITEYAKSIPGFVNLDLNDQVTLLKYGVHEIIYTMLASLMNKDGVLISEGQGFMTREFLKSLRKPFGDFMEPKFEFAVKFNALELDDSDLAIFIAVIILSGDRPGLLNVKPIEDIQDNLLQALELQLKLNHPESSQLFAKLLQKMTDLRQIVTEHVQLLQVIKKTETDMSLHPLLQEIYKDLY", "sequence (Q9Y618 whole entry)": "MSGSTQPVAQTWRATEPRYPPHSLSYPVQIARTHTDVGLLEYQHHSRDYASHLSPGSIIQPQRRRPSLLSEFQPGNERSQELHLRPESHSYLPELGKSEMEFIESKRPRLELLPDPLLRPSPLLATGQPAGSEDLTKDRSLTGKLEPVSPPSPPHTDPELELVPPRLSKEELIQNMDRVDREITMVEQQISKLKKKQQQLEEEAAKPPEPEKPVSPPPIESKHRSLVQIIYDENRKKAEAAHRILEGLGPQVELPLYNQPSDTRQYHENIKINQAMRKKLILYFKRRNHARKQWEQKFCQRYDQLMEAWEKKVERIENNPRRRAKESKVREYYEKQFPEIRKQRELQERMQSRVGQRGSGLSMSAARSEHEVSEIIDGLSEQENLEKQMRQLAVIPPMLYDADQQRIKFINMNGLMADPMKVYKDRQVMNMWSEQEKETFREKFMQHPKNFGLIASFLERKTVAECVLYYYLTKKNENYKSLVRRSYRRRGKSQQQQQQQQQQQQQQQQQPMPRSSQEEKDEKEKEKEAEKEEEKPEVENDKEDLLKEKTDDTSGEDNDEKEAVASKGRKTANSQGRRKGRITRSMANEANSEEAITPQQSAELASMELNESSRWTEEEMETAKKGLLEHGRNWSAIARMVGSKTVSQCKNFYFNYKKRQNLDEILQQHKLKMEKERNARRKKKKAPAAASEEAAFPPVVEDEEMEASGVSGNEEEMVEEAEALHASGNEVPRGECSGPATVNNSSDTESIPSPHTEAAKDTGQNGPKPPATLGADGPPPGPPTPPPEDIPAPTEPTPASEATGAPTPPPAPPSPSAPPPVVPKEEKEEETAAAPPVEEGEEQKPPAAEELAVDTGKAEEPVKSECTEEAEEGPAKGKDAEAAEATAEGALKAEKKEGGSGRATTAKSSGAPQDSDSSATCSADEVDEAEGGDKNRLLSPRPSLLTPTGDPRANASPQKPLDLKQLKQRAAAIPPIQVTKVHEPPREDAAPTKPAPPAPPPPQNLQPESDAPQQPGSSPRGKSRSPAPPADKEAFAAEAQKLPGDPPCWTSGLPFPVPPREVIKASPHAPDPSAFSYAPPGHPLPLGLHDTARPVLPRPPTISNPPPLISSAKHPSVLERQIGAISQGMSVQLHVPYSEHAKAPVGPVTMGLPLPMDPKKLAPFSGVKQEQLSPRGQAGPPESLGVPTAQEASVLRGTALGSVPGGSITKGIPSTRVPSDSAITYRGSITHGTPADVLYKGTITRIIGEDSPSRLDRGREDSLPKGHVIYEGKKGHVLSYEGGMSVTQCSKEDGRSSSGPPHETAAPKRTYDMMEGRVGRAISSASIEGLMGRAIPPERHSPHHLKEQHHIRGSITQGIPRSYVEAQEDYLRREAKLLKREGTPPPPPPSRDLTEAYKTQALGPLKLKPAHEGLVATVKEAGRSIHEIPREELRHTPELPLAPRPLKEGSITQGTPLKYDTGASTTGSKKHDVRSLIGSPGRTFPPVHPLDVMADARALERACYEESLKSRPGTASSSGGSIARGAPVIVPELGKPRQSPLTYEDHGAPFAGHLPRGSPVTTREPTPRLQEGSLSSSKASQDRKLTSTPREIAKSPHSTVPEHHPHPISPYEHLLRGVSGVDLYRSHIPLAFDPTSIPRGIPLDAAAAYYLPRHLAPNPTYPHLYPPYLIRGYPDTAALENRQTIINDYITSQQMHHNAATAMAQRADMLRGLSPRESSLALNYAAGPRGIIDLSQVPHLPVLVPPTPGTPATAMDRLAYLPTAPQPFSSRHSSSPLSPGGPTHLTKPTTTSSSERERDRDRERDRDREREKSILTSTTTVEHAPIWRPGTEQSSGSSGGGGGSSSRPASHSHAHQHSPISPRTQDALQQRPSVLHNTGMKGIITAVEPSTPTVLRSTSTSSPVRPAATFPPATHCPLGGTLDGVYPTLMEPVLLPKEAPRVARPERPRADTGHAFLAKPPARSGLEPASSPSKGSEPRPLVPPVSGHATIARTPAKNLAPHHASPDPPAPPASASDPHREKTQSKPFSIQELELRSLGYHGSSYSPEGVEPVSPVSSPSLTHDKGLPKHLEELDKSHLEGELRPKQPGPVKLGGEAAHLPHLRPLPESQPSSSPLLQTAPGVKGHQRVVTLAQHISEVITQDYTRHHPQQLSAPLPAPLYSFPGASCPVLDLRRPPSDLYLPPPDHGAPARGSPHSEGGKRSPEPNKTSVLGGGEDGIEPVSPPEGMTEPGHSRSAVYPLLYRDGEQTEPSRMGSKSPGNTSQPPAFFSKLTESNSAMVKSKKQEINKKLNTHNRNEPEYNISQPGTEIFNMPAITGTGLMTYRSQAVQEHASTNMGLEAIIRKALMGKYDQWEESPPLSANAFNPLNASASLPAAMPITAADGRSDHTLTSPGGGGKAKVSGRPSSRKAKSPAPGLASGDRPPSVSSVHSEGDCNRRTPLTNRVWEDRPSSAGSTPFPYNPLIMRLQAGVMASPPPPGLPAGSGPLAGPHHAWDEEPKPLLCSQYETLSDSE", "assay": "Counterscreen for NR2E3 inverse agonists: TR-FRET-based biochemical high throughput dose response assay to identify inverse agonists of the interaction between peroxisome proliferator-activated receptor gamma (PPARg) and nuclear receptor co-repressor 2 (NCOR2).", "format": "functional"}, "[3]": {"assay": "Artemis endonuclease inhibitor potency, dose response, biochemical, fluorescence intensity (AID 720701)", "format": "functional"}, "SUMO-activating enzyme": {"biological_target": "SUMO-activating enzyme (Homo sapiens, UniProt Q9UBT2)", "assay": "SUMOylation inhibitor hit validation, confirmation, SUMOylation inhibitor project, biochemical, AlphaScreen (AID 2018)", "format": "functional"}, "[4]": {"assay": "NIH-3T3 fibroblast cytotoxicity, dose response, cytotoxicity control, cell-based, fluorescence, Alamar Blue, secondary assay (AID 2327);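 note: NIH-3T3 mouse fibroblasts cultured with fluconazole at 8 µg/mL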", "format": "functional"}, "Protein Tat": {"biological_target": "T1, Protein Tat (Human immunodeficiency virus type 1 group M subtype B (isolate HXB2)(HIV-1), UniProt P04608)", "T1 sequence (P04608 whole entry)": "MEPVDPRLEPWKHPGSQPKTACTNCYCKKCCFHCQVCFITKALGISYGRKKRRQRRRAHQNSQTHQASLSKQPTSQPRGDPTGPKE", "format": "functional"}, "Albumin": {"biological_target": "Albumin (Bos taurus, UniProt P02769)", "sequence (P02769 whole entry)": "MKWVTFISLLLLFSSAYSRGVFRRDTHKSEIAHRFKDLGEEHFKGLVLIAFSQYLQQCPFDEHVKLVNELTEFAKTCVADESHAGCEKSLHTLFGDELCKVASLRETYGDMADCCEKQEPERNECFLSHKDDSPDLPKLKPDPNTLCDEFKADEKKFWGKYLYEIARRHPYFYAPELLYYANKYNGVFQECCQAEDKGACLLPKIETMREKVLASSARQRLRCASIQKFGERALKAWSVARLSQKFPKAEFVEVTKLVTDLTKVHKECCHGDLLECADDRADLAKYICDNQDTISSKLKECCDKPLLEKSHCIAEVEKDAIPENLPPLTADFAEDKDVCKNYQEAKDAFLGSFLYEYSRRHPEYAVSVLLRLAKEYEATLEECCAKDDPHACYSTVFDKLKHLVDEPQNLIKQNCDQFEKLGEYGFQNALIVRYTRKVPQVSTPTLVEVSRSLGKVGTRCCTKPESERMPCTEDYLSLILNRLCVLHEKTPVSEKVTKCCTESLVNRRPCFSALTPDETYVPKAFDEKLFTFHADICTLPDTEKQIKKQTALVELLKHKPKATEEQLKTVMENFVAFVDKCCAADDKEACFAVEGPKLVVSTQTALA", "assay": "Counterscreen for inhibitors of T-cell receptor (TCR)-CD3 interaction: Fluorescence-based biochemical high throughput dose response assay to identify inhibitors of T-cell receptor (TCR)-CD3 interaction using a TAMRA-labeled BSA probe.", "format": "functional"}, "[5]": {"assay": "C. albicans growth with fluconazole, confirmation, fluorescence, retest (AID 2467)", "format": "functional, cell-based"}, "Streptococcus": {"system": "Streptococcus", "assay": "Group A Streptococcus viability loss, dose response, counter-screen for streptokinase expression inhibitor project, luminescence, BacTiterGlo (AID 1915)", "format": "functional, organism-based"}, "[6]": {"system": "Streptococcus sp. 'group A'", "assay": "growth inhibition of control SK(-) GAS strain, dose response, counter-screen for streptokinase expression inhibitor project, luminescence, kanamycin, BacTiterGlo, confirmation (AID 1900)", "format": "functional, organism-based"}, "[7]": {"biological_target": "Mitogen-activated protein kinase 10 (Homo sapiens, UniProt P53779)", "sequence (P53779 whole entry)": "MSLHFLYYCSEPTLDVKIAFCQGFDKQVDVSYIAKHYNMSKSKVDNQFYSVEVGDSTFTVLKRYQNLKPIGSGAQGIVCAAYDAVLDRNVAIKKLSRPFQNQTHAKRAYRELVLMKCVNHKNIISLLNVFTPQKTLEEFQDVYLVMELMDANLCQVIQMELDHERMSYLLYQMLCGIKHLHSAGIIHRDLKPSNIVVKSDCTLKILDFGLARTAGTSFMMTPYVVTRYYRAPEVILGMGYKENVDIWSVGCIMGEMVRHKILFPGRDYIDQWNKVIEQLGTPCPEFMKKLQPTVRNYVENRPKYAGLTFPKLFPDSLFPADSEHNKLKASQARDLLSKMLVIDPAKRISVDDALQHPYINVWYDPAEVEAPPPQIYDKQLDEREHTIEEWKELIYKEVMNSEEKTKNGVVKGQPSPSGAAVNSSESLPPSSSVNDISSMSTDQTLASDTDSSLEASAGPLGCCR", "assay": "Dose response biochemical screening assay for inhibitors of c-Jun N-Terminal Kinase 3 (JNK3). [Related pubchem assays: 746 ]"}, "Paired box protein Pax-8": {"biological_target": "Paired box protein Pax-8 (Homo sapiens, UniProt Q06710)", "assay": "inhibitors of PAX8-driven TPO luciferase reporter, dose response, RMG-I cells, cherry-pick (AID 687027);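 note: luciferase reporter driven by Pax8 target thyroperoxidase promoter measured by SteadyGlo luminescence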", "format": "functional, cell-based"}, "[8]": {"assay": "cytotoxicity toward HT-29 cells – cell-based, CellTiter-Glo luminescence, IC50, dose response (AID 1117330)", "format": "functional"}, "[9]": {"assay": "RKO cell viability reduction, dose response, CellTiter-Glo luminescence (AID 1117322)", "format": "functional"}, "[10]": {"assay": "cytotoxicity toward Colo320 cells – cell-based, CellTiter-Glo luminescence, IC50, dose response (AID 1117334)", "format": "functional", "conditions": "COLO 320"}, "[11]": {"assay": "cytotoxicity toward HCT116 cells – cell-based, CellTiter-Glo luminescence, IC50, dose response (AID 1117332)", "format": "functional", "conditions": "HCT-116"}, "cells [12]": {"assay": "cells", "format": "functional, cell-based"}, "[13]": {"assay": "HCT116 cell viability decrease, GSK3B pretreatment – CellTiter-Glo, IC50, dose response (AID 1117339)", "format": "functional", "conditions": "HCT-116"}, "[14]": {"assay": "HeLa 4N DNA content increase, dose response, cell-based, IC50 (AID 1117351)", "format": "functional"}, "[15]": {"assay": "HeLa 2N DNA content increase, dose response, cell-based, IC50 (AID 1117349)", "format": "functional"}, "[16]": {"biological_target": "T2, Nuclear receptor subfamily 0 group B member 1 (Homo sapiens, UniProt P51843)", "T2 sequence (P51843 whole entry)": "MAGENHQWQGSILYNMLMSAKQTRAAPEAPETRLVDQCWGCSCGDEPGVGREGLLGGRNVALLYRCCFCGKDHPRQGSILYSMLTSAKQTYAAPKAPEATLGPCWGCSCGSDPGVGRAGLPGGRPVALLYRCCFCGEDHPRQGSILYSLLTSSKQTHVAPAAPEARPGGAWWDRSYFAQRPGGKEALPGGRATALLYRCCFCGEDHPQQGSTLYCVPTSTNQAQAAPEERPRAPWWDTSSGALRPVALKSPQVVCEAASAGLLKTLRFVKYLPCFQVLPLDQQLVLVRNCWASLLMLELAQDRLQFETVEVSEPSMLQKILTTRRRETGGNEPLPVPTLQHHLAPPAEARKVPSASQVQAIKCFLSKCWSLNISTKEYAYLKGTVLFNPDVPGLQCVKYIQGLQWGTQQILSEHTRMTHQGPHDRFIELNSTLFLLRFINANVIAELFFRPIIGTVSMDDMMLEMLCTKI", "format": "functional, cell-based"}, "[17]": {"biological_target": "G-protein coupled receptor 183 (Homo sapiens, UniProt P32249)", "sequence (P32249 whole entry)": "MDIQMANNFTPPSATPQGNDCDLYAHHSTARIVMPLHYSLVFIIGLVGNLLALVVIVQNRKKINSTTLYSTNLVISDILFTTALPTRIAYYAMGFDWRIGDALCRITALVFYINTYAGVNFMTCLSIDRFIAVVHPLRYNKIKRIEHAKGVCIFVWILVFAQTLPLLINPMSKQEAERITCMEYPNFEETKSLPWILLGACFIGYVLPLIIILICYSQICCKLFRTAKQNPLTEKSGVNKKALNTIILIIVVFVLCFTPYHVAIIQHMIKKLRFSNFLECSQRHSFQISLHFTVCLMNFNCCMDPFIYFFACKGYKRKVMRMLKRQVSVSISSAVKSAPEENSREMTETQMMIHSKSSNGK", "assay": "SAR confirmation of small molecule antagonists of the EBI2 receptor via a luminescent beta-arrestin assa.", "format": "functional"}, "[18]": {"biological_target": "T3, Glutathione-S-transferase (Schistosoma japonicum, UniProt Q26513)", "T3 sequence (Q26513 whole entry)": "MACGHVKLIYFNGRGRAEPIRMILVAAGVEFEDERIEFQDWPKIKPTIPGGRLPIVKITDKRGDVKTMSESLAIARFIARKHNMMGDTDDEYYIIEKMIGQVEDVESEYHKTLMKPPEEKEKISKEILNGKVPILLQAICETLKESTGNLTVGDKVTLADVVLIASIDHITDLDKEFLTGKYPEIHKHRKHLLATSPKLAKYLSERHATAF", "assay": "biotin-GST/anti-GST TR-FRET signal inhibitors, dose response, artefact control for Vif-APOBEC3G degradation inhibitor project, biochemical (AID 1117362)", "format": "functional"}, "[19]": {"biological_target": "Disintegrin and metalloproteinase domain-containing protein 17 (Homo sapiens, UniProt P78536)", "assay": "ADAM17 protease inhibitors, dose response, counter-screen for ADAM10 exosite inhibitor project, biochemical, quenched FRET substrate (AID 743253)"}, "[20]": {"assay": "ADAM10 inhibitors, peptide cleavage, dose response, biochemical, QFRET (AID 743254);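 note: EDANS fluorescence gain as the protease cuts the substrate; inhibitor potency against ADAM10 proteolytic activity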"}, "[21]": {"biological_target": "72 kDa type IV collagenase (Homo sapiens, UniProt P08253)", "assay": "Dose Response validation of uHTS RPN11 inhibitor hits using a MMP-2 Fluorescence assay.", "format": "functional"}, "Prothrombin": {"biological_target": "Prothrombin (Bos taurus, UniProt P00735)", "assay": "thrombin inhibition, dose response, biochemical, fluorescence polarization, uHTS hits (AID 602369)", "format": "functional"}, "[22]": {"biological_target": "Eukaryotic translation initiation factor 4E (Mus musculus, UniProt P63073)", "sequence (P63073 whole entry)": "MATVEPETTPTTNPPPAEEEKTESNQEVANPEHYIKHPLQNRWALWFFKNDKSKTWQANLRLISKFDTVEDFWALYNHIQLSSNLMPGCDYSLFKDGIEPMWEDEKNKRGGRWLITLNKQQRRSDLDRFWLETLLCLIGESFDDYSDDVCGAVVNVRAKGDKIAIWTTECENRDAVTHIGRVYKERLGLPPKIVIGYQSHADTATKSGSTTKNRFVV", "assay": "eIF4E–eIF4G protein interaction inhibitors, dose response, biochemical, TR-FRET (AID 855);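 note: potency for disrupting eIF4E binding to eIF4GI seen as loss of FRET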", "format": "functional"}, "[23]": {"biological_target": "26S proteasome non-ATPase regulatory subunit 14 (Homo sapiens, UniProt O00487)", "assay": "inhibition of proteasome subunit RPN11 – biochemical, fluorescence polarization, uHTS hits, confirmation (AID 602368)", "format": "functional"}, "cells [24]": {"assay": "cells"}, "[25]": {"assay": "cytotoxicity toward NIH3T3 fibroblasts, dose response, counter-screen, cell-based, ATP luminescence, mouse fibroblasts (AID 2010);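 note: cells exposed to compound for about 90 hours before reading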", "format": "functional"}, "[26]": {"assay": "inhibitors of intracellular T. cruzi replication, confirmation, NIH3T3 host cells, beta-gal luminescence (AID 2044);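 note: luminescent beta-galactosidase reporter signal from transgenic T. cruzi replicating inside host cells; inhibitors lower the luminescence signal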", "format": "functional, cell-based"}}, "note": "Counter-ions that a name gives are not always drawn. Calls of active or inactive are those of the source."}
{"smiles": "Cc1ccc2oc(-c3ccc(NC(=O)c4ccc5c(c4)OCO5)cc3)nc2c1", "values": [{"measurement": "IC50", "setting": "[1]", "result": "2.88 µM (active)"}, {"measurement": "IC50", "setting": "[2]", "result": "2 µM (active)"}]}
{"smiles": "O=C(Nc1cccc2nsnc12)c1ccc(-c2cccc(Cl)c2)o1", "values": [{"measurement": "IC50", "setting": "[3]", "result": "> 20 µM (inactive)"}, {"measurement": "IC50", "setting": "SUMO-activating enzyme", "result": "18.3 µM (active)"}]}
{"smiles": "COc1ccc(/C=N\\NC(=O)c2cc(O)c(O)c(O)c2)cc1CN1CCN(c2ccc(F)cc2)CC1", "values": [{"measurement": "EC50", "setting": "[4]", "result": "> 150 µM (inactive)"}, {"measurement": "IC50", "setting": "Protein Tat", "result": "> 100 µM (inconclusive)"}, {"measurement": "IC50", "setting": "Albumin", "result": "> 94.2 µM (inactive)"}, {"measurement": "EC50", "setting": "[5]", "result": "1.46 µM (active)"}]}
{"smiles": "O=C(CNC(=O)c1ccccc1Br)N/N=C\\c1cc([N+](=O)[O-])cc(Br)c1O", "values": [{"measurement": "IC50", "setting": "Albumin", "result": "> 94.1 µM (inactive)"}, {"measurement": "EC50", "setting": "Streptococcus", "result": "8.46 µM (active)"}, {"measurement": "EC50", "setting": "[6]", "result": "8.28 µM (active)"}]}
{"smiles": "CCOC(=O)c1c(-c2ccccc2)[nH]c2ccc(O)cc12", "values": [{"measurement": "IC50", "setting": "[7]", "result": "22.2 µM (not active)"}]}
{"smiles": "CC[C@]1(O)C[C@@H]2CN(CCc3c([nH]c4ccccc34)[C@@](C(=O)OC)(c3cc4c(cc3OC)N(C)[C@H]3[C@@](O)(C(=O)OC)[C@H](OC(C)=O)[C@]5(CC)C=CCN6CC[C@]43[C@@H]65)C2)C1", "note": "[VINBLASTINE SULFATE]", "values": [{"measurement": "AC50", "setting": "Paired box protein Pax-8", "result": "< 0.26 µM (active)"}, {"measurement": "IC50", "setting": "[8]", "result": "0.001 µM (active)"}, {"measurement": "IC50", "setting": "[9]", "result": "0.001 µM (active)"}, {"measurement": "IC50", "setting": "[10]", "result": "0.001 µM (active)"}, {"measurement": "IC50", "setting": "[11]", "result": "0.001 µM (active)"}, {"measurement": "IC50", "setting": "cells [12]", "result": "> 67.5 µM (inactive)"}, {"measurement": "IC50", "setting": "[13]", "result": "0.001 µM (active)"}, {"measurement": "IC50", "setting": "[14]", "result": "0.0032 µM (active)"}, {"measurement": "IC50", "setting": "[15]", "result": "0.0048 µM (active)"}, {"measurement": "IC50", "setting": "[16]", "result": "> 67.5 µM (inactive)"}]}
{"smiles": "CCCCC(=O)N1CCN(C(=O)/C=C/c2ccc(Br)cc2)CC1", "values": [{"measurement": "IC50", "setting": "[17]", "result": "0.00562 µM (active)"}]}
{"smiles": "O=C(CCCc1ccc(Br)cc1)N1CCN(Cc2ccc(Cl)cc2)CC1", "values": [{"measurement": "IC50", "setting": "[17]", "result": "> 1 µM (inactive)"}]}
{"smiles": "CCCOc1ccc(N)cc1N", "values": [{"measurement": "IC50", "setting": "[3]", "result": "> 20 µM (inactive)"}, {"measurement": "IC50", "setting": "[18]", "result": "15.8 µM (active)"}]}
{"smiles": "CSc1cccc(NC(=O)/C=C/c2ccc(Cl)cc2)c1", "values": [{"measurement": "IC50", "setting": "[19]", "result": "> 69.5 µM (inactive)"}, {"measurement": "IC50", "setting": "[20]", "result": "> 69.5 µM (inactive)"}]}
{"smiles": "C=CCn1c(SCC(=O)Nc2ccc(-c3nc4ccc(C)cc4s3)cc2)nnc1-c1ccccc1", "values": [{"measurement": "IC50", "setting": "[21]", "result": "> 100 µM (inactive)"}, {"measurement": "IC50", "setting": "Prothrombin", "result": "51.4 µM (active)"}, {"measurement": "IC50", "setting": "[22]", "result": "> 64 µM (inactive)"}, {"measurement": "IC50", "setting": "[23]", "result": "23.7 µM (active)"}, {"measurement": "IC50", "setting": "[1]", "result": "0.774 µM (active)"}, {"measurement": "IC50", "setting": "[2]", "result": "0.737 µM (active)"}]}
{"smiles": "CC(C)=CCCC(C)CN1CCC(n2nccc2NC(=O)c2ccc3c(c2)OCO3)CC1", "note": "(configuration not stated)", "values": [{"measurement": "EC50", "setting": "cells [24]", "result": "> 10 µM (not active)"}, {"measurement": "EC50", "setting": "[25]", "result": "9.11 µM (active)"}, {"measurement": "EC50", "setting": "[26]", "result": "< 0.1 µM (active)"}]}
